Reference: paper PMC8708751, “Hit Identification of a Novel Quinazoline Sulfonamide as a Promising EphB3 Inhibitor: Design, Virtual Combinatorial Library, Synthesis, Biological Evaluation, and Docking Simulation Studies” (Pharmaceuticals, 2021)
Where two headings read alike, the source gives them in different places.

How the values were obtained:
EphB1 = biological target: T1, EphB1 (Homo sapiens, UniProt P54762); assay: Kinase panel assay, EphB1; assay type: biochemical
T1 construct: purchased Reaction Biology Co. (Kinase HotSpot service)
T1 sequence (P54762 18-984): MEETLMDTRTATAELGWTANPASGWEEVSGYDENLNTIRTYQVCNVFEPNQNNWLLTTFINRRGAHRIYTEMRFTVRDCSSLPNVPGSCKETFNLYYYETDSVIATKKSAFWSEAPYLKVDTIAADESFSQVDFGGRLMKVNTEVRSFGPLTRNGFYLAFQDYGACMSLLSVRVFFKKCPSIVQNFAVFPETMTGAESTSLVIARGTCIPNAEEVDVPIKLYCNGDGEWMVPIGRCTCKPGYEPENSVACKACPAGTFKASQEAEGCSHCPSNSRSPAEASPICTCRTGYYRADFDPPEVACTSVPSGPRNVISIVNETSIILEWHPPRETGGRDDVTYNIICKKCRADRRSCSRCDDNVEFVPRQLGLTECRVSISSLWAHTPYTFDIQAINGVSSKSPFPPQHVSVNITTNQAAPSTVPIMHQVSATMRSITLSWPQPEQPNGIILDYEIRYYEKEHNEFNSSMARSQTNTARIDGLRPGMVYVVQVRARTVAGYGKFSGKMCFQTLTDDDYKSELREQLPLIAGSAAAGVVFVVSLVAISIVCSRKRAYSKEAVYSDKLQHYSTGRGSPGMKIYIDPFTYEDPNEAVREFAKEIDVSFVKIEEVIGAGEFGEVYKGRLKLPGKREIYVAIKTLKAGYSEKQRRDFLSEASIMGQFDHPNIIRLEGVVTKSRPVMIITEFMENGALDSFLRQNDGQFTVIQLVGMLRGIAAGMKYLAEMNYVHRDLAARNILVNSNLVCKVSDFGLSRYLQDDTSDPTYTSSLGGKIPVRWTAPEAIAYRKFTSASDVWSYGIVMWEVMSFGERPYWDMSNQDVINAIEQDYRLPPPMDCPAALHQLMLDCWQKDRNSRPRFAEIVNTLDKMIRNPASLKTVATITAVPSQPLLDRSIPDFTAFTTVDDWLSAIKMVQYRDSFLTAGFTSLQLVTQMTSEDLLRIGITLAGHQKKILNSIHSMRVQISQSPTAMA
Experimental: (§1) The HotSpot assay platform contains specific kinase/substrate pairs along with required cofactors. Base reaction buffer: 20 mM Hepes (pH 7.5), 10 mM MgCl2, 1 mM EGTA, 0.02% Brij35, 0.02 mg/mL BSA, 0.1 mM Na3VO4, 2 mM DTT, 1% DMSO. The tested compounds were dissolved in 100% DMSO to specific concentration. The serial dilution was conducted by Integra Viaflo Assist in DMSO (Sigma-Aldrich, Burlington, MA, USA). The reaction mixture containing the examined compound and 33P-ATP was incubated at room temperature for 2 h, and radioactivity was detected by filter-binding method. Kinase activity data were expressed as the percent remaining kinase activity in test samples compared to vehicle (dimethyl sulfoxide) reactions. IC50 values and curve fits were obtained using Prism (GraphPad Software, San Diego, CA, USA).

EphB3 kinase = biological target: T2, EphB3 kinase (Homo sapiens, UniProt P54753); assay: EphB3 kinase inhibition assay (HotSpot); assay type: biochemical
T2 construct: purchased Reaction Biology Co. (Kinase HotSpot service)
T2 sequence (P54753 34-998): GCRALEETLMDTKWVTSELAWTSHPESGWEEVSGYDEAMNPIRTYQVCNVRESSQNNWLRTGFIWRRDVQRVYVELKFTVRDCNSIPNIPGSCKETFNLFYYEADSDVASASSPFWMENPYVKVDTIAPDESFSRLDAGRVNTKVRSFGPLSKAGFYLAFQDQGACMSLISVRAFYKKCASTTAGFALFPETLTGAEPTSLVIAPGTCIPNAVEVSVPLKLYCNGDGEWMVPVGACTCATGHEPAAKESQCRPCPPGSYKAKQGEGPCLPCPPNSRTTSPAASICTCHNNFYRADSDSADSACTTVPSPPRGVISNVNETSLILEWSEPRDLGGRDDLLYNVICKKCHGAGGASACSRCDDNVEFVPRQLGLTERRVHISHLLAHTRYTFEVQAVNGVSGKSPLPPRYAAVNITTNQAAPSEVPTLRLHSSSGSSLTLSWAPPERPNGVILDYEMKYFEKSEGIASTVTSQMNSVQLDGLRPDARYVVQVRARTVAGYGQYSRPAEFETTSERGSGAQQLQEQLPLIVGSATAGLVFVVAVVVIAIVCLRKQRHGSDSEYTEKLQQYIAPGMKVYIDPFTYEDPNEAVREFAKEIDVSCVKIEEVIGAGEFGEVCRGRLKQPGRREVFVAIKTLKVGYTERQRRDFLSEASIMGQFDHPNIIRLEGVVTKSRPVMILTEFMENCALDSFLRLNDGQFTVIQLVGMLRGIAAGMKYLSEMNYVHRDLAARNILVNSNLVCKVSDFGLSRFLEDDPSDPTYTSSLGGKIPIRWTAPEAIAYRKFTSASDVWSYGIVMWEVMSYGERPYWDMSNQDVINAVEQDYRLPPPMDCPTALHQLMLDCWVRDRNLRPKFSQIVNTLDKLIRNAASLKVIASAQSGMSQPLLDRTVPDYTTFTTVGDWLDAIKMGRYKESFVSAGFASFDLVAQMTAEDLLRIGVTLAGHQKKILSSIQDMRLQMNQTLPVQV
Experimental: The synthesized compounds were subjected to in vitro screening over EphB3 kinase. A single dose of 10 µM concentration of each target compound was used in EphB3 kinase inhibition assay, at 10 µM ATP, applying HotSpot^SM technology.
as §1

- inhibition at 10 µM (EphB1; EphB1, 10 µM, read-out: Average % Enzyme Inhibition (Relative to DMSO Controls) at 10 µM): 58.9 ± 1.98%
- IC50 (EphB1; EphB1, dose-dependent assay): 5860 nM
- inhibition at 10 µM (EphB3 kinase; EphB3 kinase, 10 µM compound, 10 µM ATP, read-out: Average % Enzyme Inhibition at 10 µM (Relative to DMSO Control)): > 93%
- IC50 (EphB3 kinase; EphB3 kinase, dose dependent assay, read-out: IC50): 1040 nM
- IC50 (EphB3 kinase; EphB3 kinase, read-out: EC50 of the curve fit printed in Figure 5 (IC50 per legend)): 1040 nM
- selectivity for EphB3 over EphB1 isoform (EphB3 kinase; from IC50 values, EphB3 over EphB1): six
SMILES: NS(=O)(=O)c1ccc(Nc2ncnc3ccc(-c4cccc(O)c4)cc23)cc1 [Compound 4c, 4-((6-(3-Hydroxyphenyl)quinazolin-4-yl)amino)benzenesulfonamide]
